# According to patent publication US11827628B2, “Compositions and methods for inhibition of the JAK pathway” (Rigel Pharmaceuticals, Inc., priority 2005, dated 2023):
# Test system: up-regulation of ICAM-1 (CD54) by IFNγ in A549 lung epithelial cells
# Test: A549 Epithelial Line Stimulated with IFNγ (ICAM-1 surface expression, FACS)
# Format: cell-based, human
# Details: A549 cells stimulated with IFNγ, ICAM-1 expression by FACS; read-out: IC50, Example 43
# Outline: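 ICAM-1 (CD54) flow cytometry on live-gated A549 cells, geometric mean versus dose giving EC50. Cells received IFNγ at 75 ng/mL for 24 h after a 1 h compound pre-treatment spanning 30 μM to 14 nM in medium with 5% FBS and 0.3% DMSO.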
row,Structure (SMILES),IC50
1,"Cc1noc(CCc2ccc(Nc3nc(Nc4cccc(S(N)(=O)=O)c4)ncc3F)cc2)n1 [III-106, N2-(3-Aminosulfonylphenyl)-5-fluoro-N4-[4-(3-methyl-1,2,4-oxadiazol-5-yl)ethylenephenyl]-2,4-pyrimidinediamine]",5.9 µM
2,"COc1ccc(CN2C(=O)C(C)Oc3ccc(Nc4nc(Nc5ccc(S(N)(=O)=O)cc5)ncc4F)cc32)cc1 (racemic) [Compound V-4, Racemic N2-(4-Aminosulphonylphenyl)-5-fluoro-N4-[2-methyl-3-oxo-4-(4-methoxybenzyl)-benz[1,4]oxazin-6-yl]-2,4-pyrimidinediamine]",9.24 µM

# Same assay, conditions: Homo sapiens, A549, A549 cells stimulated with IFNγ, ICAM-1 expression by FACS; read-out: IC50, Example 43
row,Structure (SMILES),IC50
1,"Cc1cc(Nc2nc(Nc3ccc(S(N)(=O)=O)cc3)ncc2F)cc(C)c1N1CCN(C)CC1 [IX-44, N2-(4-Aminosulfonylphenyl)-N4-[3,5-dimethyl-4-(4-methylpiperazin-1-yl]phenyl)-5-fluoro-2,4-pyrimidinediamine]",8.17 µM
2,"COC(=O)c1ccc(Nc2nc(Nc3ccc(F)c(S(N)(=O)=O)c3)ncc2F)s1 [IX-48, N2-(3-Aminosulfonyl-4-fluorophenyl)-5-fluoro-N4-(5-methoxycarbonyl-thiophene-2-yl)-2,4-pyrimidinediamine]",9.56 µM

# Same assay, conditions: Homo sapiens, A549, A549 epithelial line stimulated with IFNγ; ICAM-1 expression by FACS; read-out: IC50, Example 43
row,Structure (SMILES),IC50
1,"Cc1cnc(Nc2ccc(Cl)c(S(N)(=O)=O)c2)nc1Nc1ccc(OCC(=O)N(C)C)c(Cl)c1 [Compound I-141, N2-(3-Aminosulfonyl-4-chlorophenyl)-N4-(3-chloro-4-dimethylaminocarbonylmethoxyphenyl)-5-methyl-2,4-pyrimidinediamine]",15.6 µM
2,"NS(=O)(=O)c1ccc(Nc2ncc(F)c(Nc3ccc(Cc4ccncc4)cc3)n2)cc1 [III-71, N2-(4-Aminosulfonylphenyl)-5-fluoro-N4-[4-(4-pyridinylmethyl)phenyl]-2,4-pyrimidinediamine]",8.26 µM
3,"Cc1cnc(Nc2cccc(S(N)(=O)=O)c2)nc1Nc1ccc(OCC(N)=O)cc1 [Compound I-109, N4-(4-Aminocarbonylmethoxyphenyl)-N2-(3-aminosulfonylphenyl)-5-methyl-2,4-pyrimidinediamine]",26 µM
4,"NS(=O)(=O)c1ccc(Nc2ncc(F)c(Nc3ccc(OCCN4CCOCC4)cc3)n2)cc1 [Compound I-205, N2-(4-Aminosulfonylphenyl)-5-fluoro-N4-[4-(2-morpholinoethyloxy)phenyl)-2,4-pyrimidinediamine]",9.49 µM
5,"COc1cc(Nc2nc(Nc3ccc(S(N)(=O)=O)cc3)ncc2F)ccc1OCC#N [Compound I-45, N2-(4-Aminosulfonylphenyl)-N4-(4-cyanomethoxy-3-methoxyphenyl)-5-fluoro-2,4-pyrimidinediamine]",17 µM
6,"CNC(=O)OCCc1ccc(Nc2nc(Nc3cccc(S(N)(=O)=O)c3)ncc2F)cc1 [III-60, N2-(3-Aminosulfonylphenyl)-5-fluoro-N4-{4-[2-(methylaminocarbonyloxy)ethyl]phenyl}-2,4-pyrimidinediamine]",25.5 µM
7,"NS(=O)(=O)c1cccc(Nc2ncc(F)c(NCCc3ccc(-n4ccnc4)cc3)n2)c1 [III-87, N2-(3-Aminosulfonylphenyl)-5-fluoro-N4-[4-(1-imidazolyl)phenethyl]-2,4-pyrimidinediamine]",76.2 µM
